From patent US10646501B2, “Reducing the reproductive capacity of mammals” (priority 2012, dated 2020)

How the values were obtained:
[1] = test system: rat pup ovaries (ovarian follicles); test: in vitro ovarian culture bioassay of follicle depletion (ovaries cultured 8 days, histology, follicle counts); assay type: cell-based; parameters: key to Biological activity (ranking, follicle depletion): 1—least chemical reactivity/biological activity; 6—most chemical reactivity/biological activity; details: for follicle depletion, diepoxide combined with Triptolide / Biological activity (ranking, follicle depletion): diepoxide 30 μM + Trip 5 nM; for Biological activity (ranking, follicle depletion): rank 1 to 6
Description: The biological activity of the epoxides can be evaluated in an in vitro bioassay using rat pup ovaries based on method reported in “Characterization of a rat in vitro ovarian culture system to study the ovarian toxicant 4-vinylcyclohexene diepoxide.” Devine et. al. 2002, Taxicol. Appl. Pharmacol. 184, 107-115, incorporated herein by reference. Biological activity can be determined by follicle counts in ovarian sections after week long culture with micro molar concentrations of the epoxide. In general, biologically active epoxides will also be chemically active as well but not vice versa.
FIGS. 3A, 3B and 3C illustrate an in vitro culture system for evaluating the efficacy of follicle-depletion compositions (developed by Patrick J. Devine). As set forth in the various examples herein, ovaries are cultured with VCD with or without triptolide in serum-free media for 8 days, no gonadotropins present, no media changes and active ingredients added just once at start of culture. Ovaries are collected and processed for histology to perform follicle counting.
In vitro bioassay of follicle depletion, ovaries cultured for 8 days with different chemicals
Control—no chemicals, Triptolide—5 nM (Trip), Diepoxides. RDE, CHDE, Quetol, ERL 4221, BDE, GDE, each at 30 μM+Trip 5 nM
Ovaries were prepared for histological analysis for determination of follicle depletion

[2] = epoxide assay of chemical reactivity (alkylating assay using 4-(p-nitrobenzyl) pyridine); assay type: physicochemical; parameters: key to Chemical reactivity (ranking): 1—least chemical reactivity/biological activity; 6—most chemical reactivity/biological activity; details: for Chemical reactivity (ranking): reactivity in epoxide assay, rank 1 to 6
Description: The chemical reactivity of the epoxides can determined in an alkylating assay using 4-(p-nitrobenzyl) pyridine (NBP) based on the method reported in “Detection of epoxides with 4-(p-nitrobenzyl) pyridine.” Agarwal et. al. 1979, Bull. Environm. Contam. Toxicol. 23, 825-829, incorporated herein by reference.
Compared chemical (reactivity in epoxide assay) to biological activity (follicle depletion)

[3] = test system: male rat fertility; details: oral exposure; cited from earlier work
[4] = test system: Sprague Dawley rats (Rattus norvegicus); details: via gavage; cited from earlier work
[5] = test system: ovarian failure; test: VCD alone as the only active ingredient, premature ovarian failure; assay type: in vivo; details: low concentrations or short exposure durations <15 days
Description: Premature ovarian failure is when no more ovulations occur in spite of eggs/follicles being present in an ovary. For compositions and methods to function as a means of population control, the ovarian failure desirably occurs rapidly, for example within 10 days of treatment for rodents.

[6] = 30 μm VCD alone, cultured ovary, 8 days

SMILES | follicle depletion, diepoxide combined with Triptolide ([1]; ovaries cultured 8 days) | Biological activity (ranking, follicle depletion) ([1]; ovaries cultured 8 days) | Chemical reactivity (ranking) [2] | also measured
C(CCOCC1CO1)COCC1CO1 (centres unmarked) [BDE, 1,4-butanediol diglycidyl ether] | caused significant follicle depletion | 3 | 6 | 
C1CC(COCC2CO2)CCC1COCC1CO1 (centres unmarked) [CHDE, 1,4-cyclohexanedimethanol diglycidyl ether] | caused significant follicle depletion | 4 | 3 | 
O=C(OCC1CCC2OC2C1)C1CCC2OC2C1 (centres unmarked) [ERL 4221, 3,4-epoxy-cyclohexyl-methyl-3,4-epoxycyclohexyl carboxylate] | caused significant follicle depletion | 6 | 1 | biological activity in words ([1]; when combined with Trip, among the six diepoxides): most biologically active; chemical reactivity in words ([2]; among the six diepoxides): least chemically reactive
OCC(COCC1CO1)OCC1CO1 (centres unmarked) [GDE, glycerol diglycidyl ether] | caused significant follicle depletion | 2 | 5 | 
C(COCC1CO1)OCC1CO1 (centres unmarked) [Quetol, ethylene glycol diglycidyl ether] | caused significant follicle depletion | 5 | 2 | 
Oc1cccc(OCC2CO2)c1 (centres unmarked) [RDE, resorcinol glycidyl ether] | did not cause significant follicle depletion | 1 | 4 | 
CC(C)[C@]12O[C@H]1[C@@H]1O[C@]13[C@]1(O[C@H]1C[C@H]1C4=C(CC[C@@]13C)C(=O)OC4)[C@@H]2O [Triptolide, triptolide] |  |  |  | effect on male rat fertility [3]: compromise male rat fertility to ultimate sterility; follicle depletion, triptolide alone ([1]; Triptolide 5 nM alone, ovaries cultured 8 days): did not cause significant follicle depletion
C1CC2OC2CC1C1CO1 (centres unmarked) [VCD, 4-vinylcyclohexene diepoxide] |  |  |  | primordial follicle depletion [4]: efficacious to cause non-regenerating primordial follicle depletion; effect on the other stages of follicles [1, 6]: not significantly affected; reduction in primordial follicles [1, 6]: 38%; premature ovarian failure [5]: did not cause premature ovarian failure
